# Assays:
# alpha1a receptor = target: T1, alpha1a receptor (Homo sapiens, UniProt P35348); assay: displacement of 3H-prazosin binding to the alpha1a receptor (yeast membranes)
# T1 construct: made in house; host or cells: Pichia pastoris (membranes)
# T1 sequence (P35348 1-466): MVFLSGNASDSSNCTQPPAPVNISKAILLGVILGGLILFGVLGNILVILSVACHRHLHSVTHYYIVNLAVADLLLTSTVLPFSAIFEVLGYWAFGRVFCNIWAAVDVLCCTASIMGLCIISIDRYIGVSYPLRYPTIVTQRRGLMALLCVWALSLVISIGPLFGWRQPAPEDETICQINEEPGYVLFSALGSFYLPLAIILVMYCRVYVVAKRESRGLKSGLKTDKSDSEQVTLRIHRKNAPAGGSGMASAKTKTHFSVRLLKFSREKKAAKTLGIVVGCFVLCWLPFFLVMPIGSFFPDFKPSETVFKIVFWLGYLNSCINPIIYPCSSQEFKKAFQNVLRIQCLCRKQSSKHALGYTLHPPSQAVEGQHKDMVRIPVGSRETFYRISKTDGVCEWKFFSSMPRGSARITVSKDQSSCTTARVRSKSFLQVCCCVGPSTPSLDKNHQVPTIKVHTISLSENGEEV
# alpha1b receptor = target: T2, alpha1b receptor (Homo sapiens, UniProt P35368); assay: displacement of 3H-prazosin binding to the alpha1b receptor (yeast membranes)
# T2 construct: made in house; host or cells: Pichia pastoris (membranes)
# T2 sequence (P35368 1-520): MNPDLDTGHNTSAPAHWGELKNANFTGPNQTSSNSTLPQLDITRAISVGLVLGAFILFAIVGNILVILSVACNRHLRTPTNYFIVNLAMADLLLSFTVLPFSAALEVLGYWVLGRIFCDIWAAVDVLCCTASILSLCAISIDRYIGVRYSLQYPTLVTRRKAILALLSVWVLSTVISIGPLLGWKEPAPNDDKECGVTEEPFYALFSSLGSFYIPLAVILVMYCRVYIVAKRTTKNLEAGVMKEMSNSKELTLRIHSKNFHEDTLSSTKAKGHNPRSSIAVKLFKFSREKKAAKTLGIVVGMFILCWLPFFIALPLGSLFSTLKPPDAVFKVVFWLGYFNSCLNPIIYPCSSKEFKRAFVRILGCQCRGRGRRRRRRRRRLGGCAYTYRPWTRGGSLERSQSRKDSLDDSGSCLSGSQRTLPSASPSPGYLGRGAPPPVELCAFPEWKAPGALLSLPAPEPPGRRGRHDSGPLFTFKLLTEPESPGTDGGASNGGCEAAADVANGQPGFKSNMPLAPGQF
# alpha1d receptor = target: T3, alpha1d receptor (Homo sapiens, UniProt P25100); assay: displacement of 3H-prazosin binding to the alpha1d receptor (yeast membranes)
# T3 construct: made in house; host or cells: Pichia pastoris (membranes)
# T3 sequence (P25100 1-572): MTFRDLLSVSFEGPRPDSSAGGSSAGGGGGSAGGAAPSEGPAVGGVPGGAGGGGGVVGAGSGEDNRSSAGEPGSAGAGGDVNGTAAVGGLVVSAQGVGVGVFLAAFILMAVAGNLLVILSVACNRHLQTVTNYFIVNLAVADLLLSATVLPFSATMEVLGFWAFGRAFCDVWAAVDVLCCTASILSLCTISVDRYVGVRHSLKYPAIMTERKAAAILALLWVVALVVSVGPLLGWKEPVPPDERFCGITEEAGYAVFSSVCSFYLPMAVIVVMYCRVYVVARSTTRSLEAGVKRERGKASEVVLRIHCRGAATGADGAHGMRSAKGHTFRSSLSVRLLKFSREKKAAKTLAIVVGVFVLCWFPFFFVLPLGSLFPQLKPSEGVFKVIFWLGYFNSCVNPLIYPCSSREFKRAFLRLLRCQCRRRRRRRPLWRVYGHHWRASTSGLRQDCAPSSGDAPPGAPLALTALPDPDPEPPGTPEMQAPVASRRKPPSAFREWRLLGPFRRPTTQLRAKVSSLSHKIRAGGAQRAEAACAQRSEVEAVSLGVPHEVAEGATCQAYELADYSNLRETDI
# α2a adrenergic receptor = target: T4, α2a adrenergic receptor (Homo sapiens, UniProt P08913); assay: displacement of 3H-rauwolscine binding to the alpha2a subtype (yeast membranes)
# T4 construct: made in house; host or cells: Pichia pastoris (membranes)
# T4 sequence (P08913 1-465): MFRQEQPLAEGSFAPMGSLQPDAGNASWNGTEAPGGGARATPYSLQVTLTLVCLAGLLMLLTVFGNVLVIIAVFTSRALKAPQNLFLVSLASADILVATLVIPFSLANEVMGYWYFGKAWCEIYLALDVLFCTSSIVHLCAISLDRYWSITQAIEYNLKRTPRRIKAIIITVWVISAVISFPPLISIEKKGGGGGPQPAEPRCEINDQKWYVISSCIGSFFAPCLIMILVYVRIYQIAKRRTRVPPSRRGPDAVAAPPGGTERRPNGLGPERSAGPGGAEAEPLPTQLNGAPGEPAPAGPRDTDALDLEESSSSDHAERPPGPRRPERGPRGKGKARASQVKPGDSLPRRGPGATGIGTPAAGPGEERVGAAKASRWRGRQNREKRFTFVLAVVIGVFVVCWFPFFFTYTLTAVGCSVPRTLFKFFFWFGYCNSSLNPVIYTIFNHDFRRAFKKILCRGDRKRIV
# beta1 receptor = target: T5, beta1 receptor (Homo sapiens, UniProt P08588); assay: displacement of 3H-CGP12177 binding to the beta1 receptor (yeast membranes)
# T5 construct: made in house; host or cells: Pichia pastoris (membranes)
# T5 sequence (P08588 whole entry): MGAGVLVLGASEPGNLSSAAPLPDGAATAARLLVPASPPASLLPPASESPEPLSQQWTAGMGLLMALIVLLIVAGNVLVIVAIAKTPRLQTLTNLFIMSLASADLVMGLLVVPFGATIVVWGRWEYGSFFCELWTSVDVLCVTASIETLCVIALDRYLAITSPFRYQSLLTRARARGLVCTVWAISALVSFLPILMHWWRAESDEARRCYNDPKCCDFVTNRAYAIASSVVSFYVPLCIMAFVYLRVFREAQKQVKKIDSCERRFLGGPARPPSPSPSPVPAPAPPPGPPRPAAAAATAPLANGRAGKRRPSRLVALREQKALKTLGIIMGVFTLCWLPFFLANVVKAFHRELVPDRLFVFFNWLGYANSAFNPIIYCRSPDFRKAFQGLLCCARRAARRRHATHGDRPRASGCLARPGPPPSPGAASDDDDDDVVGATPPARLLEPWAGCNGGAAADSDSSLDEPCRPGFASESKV
# [1] = target: T6, alpha1a adrenergic receptor (Homo sapiens, UniProt P35348)
# T6 sequence (P35348 1-466): T1 sequence (P35348 1-466)
# [2] = target: T6, alpha1a adrenergic receptor; assay: hot saturation of 125I-AdTx1 on yeast membranes expressing the alpha1a adrenergic receptor
# Experimental: The analysis of the saturation of the alpha1a adrenergic receptor with AdTx1 is carried out by incubating increasing concentrations of the iodinated peptide in the presence of 20 μg of membranes containing the alpha1a adrenergic receptor, for 20 h, and then measuring the radioactivity as above.
structure (smiles),measurement,setting,value
CC[C@H](C)[C@@H]1NC(=O)CNC(=O)[C@H](Cc2ccccc2)NC(=O)[C@H]([C@@H](C)CC)NC(=O)[C@H](CO)NC(=O)[C@H](CCCCN)NC(=O)[C@H](CO)NC(=O)[C@H]([C@@H](C)O)NC(=O)[C@H](C(C)C)NC(=O)[C@@H](NC(=O)[C@@H](NC(=O)[C@@H](N)CC(C)C)[C@@H](C)O)CSSC[C@@H]2NC(=O)[C@H](CC(C)C)NC(=O)[C@H](CC(N)=O)NC(=O)[C@H](CCC(N)=O)NC(=O)CNC(=O)[C@H](CC(=O)O)NC(=O)[C@@H]3CCCN3C(=O)[C@H](CSSC[C@@H](C(=O)N[C@@H](C)C(=O)N[C@@H](C)C(=O)N[C@H](C(=O)N[C@H]3CSSC[C@@H](C(=O)N[C@H]4CSSC[C@@H](C(=O)N[C@@H](CC(N)=O)C(=O)N[C@@H](CCC(=O)O)C(=O)O)NC(=O)[C@H](CCCCN)NC(=O)[C@H](CC(=O)O)NC(=O)[C@H]([C@@H](C)O)NC(=O)[C@H](CCCCN)NC4=O)NC(=O)[C@H](Cc4c[nH]cn4)NC(=O)[C@H]([C@@H](C)CC)NC(=O)[C@H](CO)NC(=O)[C@H](CC(=O)O)NC(=O)[C@H](Cc4ccc(O)cc4)NC(=O)[C@H](CC(N)=O)NC(=O)[C@H](CCC(=O)O)NC(=O)[C@@H]4CCCN4C(=O)[C@H]([C@@H](C)CC)NC(=O)[C@@H]4CCCN4C3=O)[C@@H](C)O)NC(=O)CNC(=O)[C@H](CCCNC(=N)N)NC(=O)[C@H]([C@@H](C)O)NC(=O)[C@H](CO)NC(=O)[C@H](CC(=O)O)NC(=O)[C@H](Cc3ccc(O)cc3)NC(=O)[C@H]([C@@H](C)CC)NC(=O)[C@H](CCCCN)NC(=O)[C@@H]3CCCN3C(=O)[C@H](C(C)C)NC(=O)[C@H](C(C)C)NC(=O)[C@H](Cc3ccc(O)cc3)NC(=O)[C@H](Cc3c[nH]cn3)NC(=O)[C@H](CCCNC(=N)N)NC(=O)[C@H](CCCNC(=N)N)NC(=O)[C@H](CCCCN)NC(=O)[C@H](Cc3ccccc3)NC2=O)NC(=O)[C@H](CC(=O)O)NC(=O)[C@H](CCC(=O)O)NC(=O)[C@H]([C@@H](C)O)NC(=O)[C@H]([C@@H](C)O)NC1=O [AdTx1],IC50,alpha1a receptor,1.8 nM
same,IC50,alpha1b receptor,2300 nM
same,IC50,alpha1d receptor,9900 nM
same,IC50,α2a adrenergic receptor,> 50000 nM
same,IC50,beta1 receptor,> 50000 nM
same,IC50,[1],0.5 nM
same,Kd,[2],0.8 ± 0.2 nM
